Activity calls are given as the source filed them.
Columns and labels:
Bcl-2-like protein 10 = Bcl-2-like protein 10 (Homo sapiens, UniProt Q9HD36); test: displacers of TR3 peptide from Bcl-B, primary screen, selectivity assay for Bfl-1 inhibitor project, biochemical, fluorescence polarization, FITC-TR3 peptide (AID 748);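 note: fluorescence polarization from a fluorescein-labelled TR3 peptide binding purified Bcl-B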
[1] = microbe, parasite or virus in culture; type: functional; conditions: Mycobacterium tuberculosis
[2] = THP-1 cell cytotoxicity, dose response, cytotoxicity control for non-replicating M. tuberculosis project (AID 489025); type: functional
[3] = HepG2 cell cytotoxicity, dose response, cytotoxicity control for non-replicating M. tuberculosis project (AID 489018); type: functional; conditions: Mycobacterium tuberculosis
[4] = Vero E6 cell cytotoxicity, dose response, cytotoxicity control for non-replicating M. tuberculosis project, secondary assay (AID 492998); type: functional, VeroE6; conditions: Vero C1008
cells = type: functional
SUMO E1/E2 = SUMO E1/E2 (Homo sapiens, UniProt P63279+Q9UBE0+Q9UBT2); test: SAR analysis of SUMOylation using HTRF in an in-Vitro dose response assay. [Related pubchem assays (depositor defined):AID2006, AID2011, AID2018, AID2069, AID2658]; type: functional
[5] = molecular target: T1, Voltage-gated N-type calcium channel alpha-1B subunit/Amyloid beta A4 precursor protein-binding family A member 1 (Homo sapiens, UniProt Q00975+Q02410); test: disruptors of Mint-PDZ/N-type channel peptide interaction – biochemical, HTRF, set 2, SAR follow-up (AID 434980); type: functional
T1 sequence (Q00975 whole entry): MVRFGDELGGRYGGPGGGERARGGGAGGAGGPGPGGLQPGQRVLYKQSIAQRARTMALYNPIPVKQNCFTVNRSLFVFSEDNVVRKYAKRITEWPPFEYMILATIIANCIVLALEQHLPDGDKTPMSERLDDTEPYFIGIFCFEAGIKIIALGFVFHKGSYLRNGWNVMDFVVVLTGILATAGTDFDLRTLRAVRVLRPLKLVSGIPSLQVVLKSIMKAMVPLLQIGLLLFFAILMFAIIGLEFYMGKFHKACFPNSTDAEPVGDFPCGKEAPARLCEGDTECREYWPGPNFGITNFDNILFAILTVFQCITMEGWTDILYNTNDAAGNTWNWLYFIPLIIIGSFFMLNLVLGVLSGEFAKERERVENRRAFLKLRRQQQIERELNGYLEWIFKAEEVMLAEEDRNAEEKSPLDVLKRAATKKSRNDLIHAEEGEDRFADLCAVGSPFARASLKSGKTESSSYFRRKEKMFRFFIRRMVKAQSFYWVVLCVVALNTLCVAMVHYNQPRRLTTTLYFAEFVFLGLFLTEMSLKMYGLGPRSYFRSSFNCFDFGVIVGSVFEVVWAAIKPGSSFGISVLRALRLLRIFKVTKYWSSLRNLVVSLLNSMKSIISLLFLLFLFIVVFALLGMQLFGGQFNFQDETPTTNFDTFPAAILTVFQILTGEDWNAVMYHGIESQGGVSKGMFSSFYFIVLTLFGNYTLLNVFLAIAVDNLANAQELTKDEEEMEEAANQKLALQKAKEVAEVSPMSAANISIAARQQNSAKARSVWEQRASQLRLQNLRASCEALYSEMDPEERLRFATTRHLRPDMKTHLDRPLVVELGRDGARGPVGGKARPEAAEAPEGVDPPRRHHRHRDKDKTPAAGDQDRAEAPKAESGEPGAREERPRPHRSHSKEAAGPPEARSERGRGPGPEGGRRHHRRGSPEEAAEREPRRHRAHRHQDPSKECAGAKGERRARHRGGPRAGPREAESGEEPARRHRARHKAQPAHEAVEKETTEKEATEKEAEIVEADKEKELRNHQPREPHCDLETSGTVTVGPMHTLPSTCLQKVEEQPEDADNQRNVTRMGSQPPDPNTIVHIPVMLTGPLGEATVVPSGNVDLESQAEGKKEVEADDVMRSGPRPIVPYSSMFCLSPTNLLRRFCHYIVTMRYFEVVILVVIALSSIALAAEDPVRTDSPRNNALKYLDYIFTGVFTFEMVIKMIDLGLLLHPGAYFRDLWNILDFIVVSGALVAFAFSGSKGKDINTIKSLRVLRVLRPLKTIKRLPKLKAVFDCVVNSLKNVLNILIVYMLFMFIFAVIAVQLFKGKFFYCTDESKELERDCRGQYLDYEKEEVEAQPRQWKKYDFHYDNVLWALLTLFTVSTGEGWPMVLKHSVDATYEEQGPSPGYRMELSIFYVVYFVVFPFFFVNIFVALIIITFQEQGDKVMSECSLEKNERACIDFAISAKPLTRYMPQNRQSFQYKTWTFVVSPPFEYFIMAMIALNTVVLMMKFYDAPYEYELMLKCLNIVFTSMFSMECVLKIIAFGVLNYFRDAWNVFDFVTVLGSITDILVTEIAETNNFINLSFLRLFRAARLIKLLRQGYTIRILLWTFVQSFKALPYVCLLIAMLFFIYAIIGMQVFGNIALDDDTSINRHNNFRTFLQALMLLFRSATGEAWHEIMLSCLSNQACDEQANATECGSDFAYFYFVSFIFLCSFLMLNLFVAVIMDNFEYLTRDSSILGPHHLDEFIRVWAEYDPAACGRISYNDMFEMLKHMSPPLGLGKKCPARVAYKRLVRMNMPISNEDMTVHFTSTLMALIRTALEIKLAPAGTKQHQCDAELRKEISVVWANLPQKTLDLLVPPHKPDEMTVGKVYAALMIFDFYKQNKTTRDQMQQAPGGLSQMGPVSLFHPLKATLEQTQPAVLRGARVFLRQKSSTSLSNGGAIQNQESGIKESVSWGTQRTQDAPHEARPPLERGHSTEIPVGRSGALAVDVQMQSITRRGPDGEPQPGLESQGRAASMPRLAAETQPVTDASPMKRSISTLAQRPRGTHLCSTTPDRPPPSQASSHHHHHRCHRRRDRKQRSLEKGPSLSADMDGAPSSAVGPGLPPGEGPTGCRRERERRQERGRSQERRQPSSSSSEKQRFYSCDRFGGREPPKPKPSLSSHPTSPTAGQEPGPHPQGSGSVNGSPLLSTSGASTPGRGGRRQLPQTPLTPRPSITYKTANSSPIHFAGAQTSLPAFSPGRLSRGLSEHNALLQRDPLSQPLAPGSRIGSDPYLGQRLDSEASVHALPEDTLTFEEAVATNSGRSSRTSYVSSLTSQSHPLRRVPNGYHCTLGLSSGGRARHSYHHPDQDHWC
T1 sequence (Q02410 whole entry): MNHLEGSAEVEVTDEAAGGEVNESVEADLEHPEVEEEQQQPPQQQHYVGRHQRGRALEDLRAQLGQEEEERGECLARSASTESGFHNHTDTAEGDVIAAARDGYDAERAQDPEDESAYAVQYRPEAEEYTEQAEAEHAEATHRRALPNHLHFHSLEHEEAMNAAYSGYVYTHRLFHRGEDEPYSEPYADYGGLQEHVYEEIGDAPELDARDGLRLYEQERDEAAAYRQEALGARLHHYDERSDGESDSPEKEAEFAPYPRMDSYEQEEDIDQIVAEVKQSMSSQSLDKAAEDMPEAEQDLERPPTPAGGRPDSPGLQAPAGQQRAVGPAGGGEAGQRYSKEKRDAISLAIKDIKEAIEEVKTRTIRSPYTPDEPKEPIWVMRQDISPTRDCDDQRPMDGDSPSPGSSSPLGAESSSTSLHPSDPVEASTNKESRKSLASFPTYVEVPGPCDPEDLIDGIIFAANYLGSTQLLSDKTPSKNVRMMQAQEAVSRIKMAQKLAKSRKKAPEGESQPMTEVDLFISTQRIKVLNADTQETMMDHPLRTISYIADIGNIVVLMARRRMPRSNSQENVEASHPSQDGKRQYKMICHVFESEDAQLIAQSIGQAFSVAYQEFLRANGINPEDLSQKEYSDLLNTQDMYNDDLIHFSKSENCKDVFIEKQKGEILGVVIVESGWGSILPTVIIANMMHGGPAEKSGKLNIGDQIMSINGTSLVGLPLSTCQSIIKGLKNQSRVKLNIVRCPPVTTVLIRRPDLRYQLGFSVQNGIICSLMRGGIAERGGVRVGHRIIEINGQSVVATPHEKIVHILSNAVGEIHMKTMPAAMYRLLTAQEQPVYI

[6] = molecular target: T1, Voltage-gated N-type calcium channel alpha-1B subunit/Amyloid beta A4 precursor protein-binding family A member 1; test: disruptors of Mint-PDZ/N-type channel peptide interaction – biochemical, HTRF, SAR follow-up (AID 2489); type: functional
Cytochrome P450 2C19 = Cytochrome P450 2C19 (Homo sapiens, UniProt P33261); test: qHTS Assay for Inhibitors and Substrates of Cytochrome P450 2C19. [Related pubchem assays: 410 ]; type: ADME; conditions: read-out: Potency
Cytochrome P450 2D6 = Cytochrome P450 2D6 (Homo sapiens, UniProt P10635); test: qHTS Assay for Inhibitors and Substrates of Cytochrome P450 2D6. [Related pubchem assays: 410 ]; type: ADME; conditions: read-out: Potency
Sequence of Cytochrome P450 2D6 (P10635 whole entry): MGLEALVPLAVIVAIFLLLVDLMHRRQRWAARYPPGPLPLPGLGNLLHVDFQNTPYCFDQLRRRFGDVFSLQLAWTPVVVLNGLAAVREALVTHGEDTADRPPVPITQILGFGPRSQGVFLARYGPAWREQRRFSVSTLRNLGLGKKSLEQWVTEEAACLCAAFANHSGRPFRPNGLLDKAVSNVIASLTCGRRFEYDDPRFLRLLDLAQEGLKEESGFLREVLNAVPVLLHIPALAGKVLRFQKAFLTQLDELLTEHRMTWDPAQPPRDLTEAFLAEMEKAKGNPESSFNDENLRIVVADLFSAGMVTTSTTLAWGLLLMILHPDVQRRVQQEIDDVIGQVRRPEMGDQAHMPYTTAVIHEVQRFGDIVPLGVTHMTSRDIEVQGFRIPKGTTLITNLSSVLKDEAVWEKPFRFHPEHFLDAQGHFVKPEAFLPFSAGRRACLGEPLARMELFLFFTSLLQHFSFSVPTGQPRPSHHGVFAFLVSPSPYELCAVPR

[7] = molecular target: Eukaryotic translation initiation factor 4H (Homo sapiens, UniProt Q15056); test: human eIF4H binding inhibitors, primary screen, translation initiation inhibitor project, biochemical, uHTS, fluorescence polarization (AID 2012)
[8] = molecular target: Polyadenylate-binding protein 1 (Homo sapiens, UniProt P11940); test: PABP poly(A) RNA binding inhibitors, primary screen, biochemical, fluorescence polarization, uHTS (AID 2014)
Sequence of Polyadenylate-binding protein 1 (P11940 whole entry): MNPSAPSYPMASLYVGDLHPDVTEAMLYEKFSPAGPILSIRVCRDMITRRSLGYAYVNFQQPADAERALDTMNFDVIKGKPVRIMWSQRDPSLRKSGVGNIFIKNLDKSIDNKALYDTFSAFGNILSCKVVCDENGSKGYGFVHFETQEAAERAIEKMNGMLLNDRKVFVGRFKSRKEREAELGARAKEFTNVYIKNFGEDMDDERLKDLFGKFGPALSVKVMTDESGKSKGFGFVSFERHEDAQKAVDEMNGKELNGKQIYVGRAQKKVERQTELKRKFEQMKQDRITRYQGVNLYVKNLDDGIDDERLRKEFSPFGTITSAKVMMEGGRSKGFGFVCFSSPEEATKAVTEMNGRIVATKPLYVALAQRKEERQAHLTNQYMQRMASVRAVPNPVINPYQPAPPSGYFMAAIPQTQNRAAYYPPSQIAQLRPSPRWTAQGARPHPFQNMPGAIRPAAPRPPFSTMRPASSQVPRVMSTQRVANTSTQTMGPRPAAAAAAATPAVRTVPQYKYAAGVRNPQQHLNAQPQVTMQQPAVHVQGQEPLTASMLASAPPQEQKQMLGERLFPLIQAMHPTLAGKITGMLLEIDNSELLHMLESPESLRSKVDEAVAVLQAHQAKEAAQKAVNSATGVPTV

[9] = molecular target: DNA dC->dU-editing enzyme APOBEC-3A (Homo sapiens, UniProt P31941); test: Dose Response confirmation of small molecule APOBEC3A DNA Deaminase Inhibitors via a fluorescence-based single-stranded DNA deaminase assay. [Related pubchem assays (depositor defined):AID493011, AID493024]; type: functional
[10] = molecular target: DNA dC->dU-editing enzyme APOBEC-3G (Homo sapiens, UniProt Q9HC16); type: functional;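 note: Dose-response counterscreen measuring inhibition of APOBEC3G DNA deaminase activity, run while confirming APOBEC3A inhibitors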
Sequence of DNA dC->dU-editing enzyme APOBEC-3G (Q9HC16 whole entry): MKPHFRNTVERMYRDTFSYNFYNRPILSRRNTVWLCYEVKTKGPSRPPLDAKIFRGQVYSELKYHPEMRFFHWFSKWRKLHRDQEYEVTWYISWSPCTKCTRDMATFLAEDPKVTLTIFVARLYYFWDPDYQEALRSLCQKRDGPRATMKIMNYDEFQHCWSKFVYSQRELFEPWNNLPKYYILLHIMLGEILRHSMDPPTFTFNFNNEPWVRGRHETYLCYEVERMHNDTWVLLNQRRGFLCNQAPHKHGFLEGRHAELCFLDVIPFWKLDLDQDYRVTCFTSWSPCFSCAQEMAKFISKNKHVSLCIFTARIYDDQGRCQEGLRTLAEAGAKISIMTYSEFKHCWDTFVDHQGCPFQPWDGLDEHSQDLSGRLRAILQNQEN

[11] = molecular target: Mothers against decapentaplegic homolog 3 (Homo sapiens, UniProt P84022); test: Smad3 binding inhibitors, lysate ELISA, dose response, cell lysate, secondary confirmation, chemiluminescent ELISA, HEK293 lysate (AID 1058); type: functional

**Q.** Which results are given for `Cc1c(CN(C)C)c2c(n1Cc1ccccc1)C(=O)c1ccc(Br)cc1-2`?
**A.** IC50 (Bcl-2-like protein 10): > 50 µM (inactive); CC50 [1]: 22 µM (active); CC50 [2]: 10.5 µM (active); CC50 [3]: > 20 µM (active); CC50 [4]: 15.3 µM (active); IC50 (cells): 10.6 µM (active)

**Q.** Which IC50 (SUMO E1/E2) does the source give for `Cc1ccc(S(=O)(=O)N(C)C)cc1NC(=O)c1cc(-c2ccco2)nc2ccccc12` here?
**A.** 4.98 µM (active)

**Q.** What about the IC50 [5] of the same compound?
**A.** > 56.8 µM (inactive)

**Q.** What about the IC50 [6] of the same compound?
**A.** > 56.8 µM (inactive)

**Q.** For `COc1cc2oc(-c3ccccc3)cc(=O)c2cc1O`, which AC50 (Cytochrome P450 2C19) is on record?
**A.** 5.01 µM (inconclusive)

**Q.** And the AC50 (Cytochrome P450 2D6)?
**A.** 31.6 µM (inconclusive)

**Q.** Which results are given for `C=CCNC1=N[C@@H](c2ccccc2)C(C(=O)OC)=C(C)N1CC`?
**A.** IC50 [7]: > 100 µM (inactive); IC50 [8]: 9.54 µM (active); IC50 [9]: 5.62 µM (active); IC50 [10]: 4.51 µM (active)

**Q.** For `COc1ccc(C(c2cc3c(cc2O)OCO3)N2CCOCC2)cc1OC` (stereo unspecified), which IC50 [11] is on record?
**A.** 12.2 µM (not active)

Source: ChEMBL document CHEMBL1201862, “PubChem BioAssay data set” (2004)
